Laboratory results published in patent US9980489B2, “Stabilized bio-available soluble silicate solution” (priority 2010, dated 2018).

Tested on: silicon accumulator plants, silicon diffusion plants and silicon rejecting plants
Details: foliar spray every week, solution containing 0002 mg/ml Si

silicic acid
effect on growth, production, resistance to infection, color of fruits, shelf life: clear effect
